Values of other authors, collected in PMC9305358 (The Journal of Biological Chemistry, 2022).
Read-outs that look alike come from different tables or passages of the source.

Tests used:
[1] = system: Mtb cells; conditions: ref [19], [20], [21], [22]; cited from earlier work
[2] = system: ClpC1; conditions: cited from earlier work
[3] = system: ClpC1 NTD; conditions: crystal structure pdb6PBS, ref [25]; cited from earlier work

ecumicin
toxicity to Mtb cells [1]: highly toxic to Mtb cells
effect on ClpC1 ATPase activity ([2]; ref [20], [21]): increase ClpC1 ATPase activity
binding stoichiometry/mode at ClpC1 NTD [3]: two ecumicin peptides bind to the NTD

lassomycin
toxicity to Mtb cells [1]: highly toxic to Mtb cells
effect on ClpC1 ATPase activity ([2]; ref [20], [21]): increase ClpC1 ATPase activity

rufomycin
toxicity to Mtb cells [1]: highly toxic to Mtb cells
effect on ClpC1 ATPase activity ([2]; ref [22]): shows no impact
